Experiments:
RlmCDs = biological target: T1, RlmCDs (Streptococcus pneumoniae, UniProt Q97R12); experiment: in-vitro methyltransferase assay, 3H counting on RNA; format: biochemical; details: labelled compound (3H-SAM); 18-mer rRNA-h35, 3 mM MgCl2, pH 8.0, 37 °C, 2 h
T1 construct: gene SP_1029; core region residues 1-454; 8xHis-SUMO tag cut by ULP1; E. coli BL21 (Gold)

RlmCDs E443Q = RlmCDs E443Q (Streptococcus pneumoniae, UniProt Q97R12 1-454, E443Q); experiment: crystal structure (2.85 A); SAH (SAM added); only the 5-bp stem modelled, loop not visible; Crystallization: 8 mg/ml protein, protein:SAM:RNA 1:2:1.2, 0.1 M ammonium sulfate, 0.01 M MgCl2, 0.05 M MES, 20% w/v PEG8000, pH 5.6; protein storage buffer 20; details: protein: recombinant; tags: N-terminal 8xHis-SUMO, cleaved with ULP1; hairpin

| Molecule | in-vitro methyltransferase assay, 3H counting on RNA (RlmCDs) | binding result (RlmCDs E443Q) |
| --- | --- | --- |
| C[S+](CC[C@H](N)C(=O)O)C[C@H]1O[C@@H](n2cnc3c(N)ncnc32)[C@H](O)[C@@H]1O (some centres unmarked) [SAM] | both full-length RlmCD and its shorter construct RlmCDs exhibit strong MTase activity | – |
| GGCACGUUGAAAAGUGCC (structured_RNA, m5U at position 8 (U747)) [m5U747 rRNA-h35 (18-mer, 23S rRNA helix 35)] | – | binds |
